Read-outs that look alike come from different tables or passages of the source.
How the values were obtained:
[1] = Acute toxicity (LD50) by intraperitoneal injection; conditions: mouse, in vivo, ip
Protocol: LD50 values of the compounds by intraperitoneal injection in mice were determined.

[2] = Cerebral vasodilating action: vertebral arterial flow, intra-arterial injection; format: in vivo; conditions: Canis lupus familiaris; dogs, 1 mg intraarterially; read-out: Percent increase in vertebral arterial flow when injected intraarterially
Protocol: A: Percent increase in vertebral arterial flow when injected
intraarterially (1 mg) to dogs.
(1) For the experimental evaluation of cerebral vasodilating action, the canine vertebral arterial preparation was used. The carotid arterial blood was led to the vertebral artery by a short extracorporeal loop. The vertebral arterial flow was measured by an electromagnetic flow transducer inserted in the circuit. The action of the compounds on the vertebral arterial flow was expressed by percent increase when 1 mg of each compound was injected intra-arterially.

[3] = dog, in vivo, iv, 1 mg/kg
Protocol: (§1) Pressure in the carotid artery was measured by a pressure transducer and mean arterial pressure was obtained by electrical integration. Heart rate was obtained by a cardiotachometer, triggered by a signal from the pressure pulse. The vertebral arterial flow was measured by fitting an electromagnetic flow transducer. The action on systemic mean arterial pressure, heart rate and vertebral arterial flow were represented by Δ mmHg, Δ beats/min and percent increase.

[4] = Effects of intravenous injection on mean arterial pressure, heart rate and vertebral arterial flow in anesthetized dogs; conditions: for change in vivo at 1 mg/kg: Canis lupus familiaris, iv, read-out: Percent increase in vertebral arterial flow when injected intravenously; for Changes in heart rate when injected intravenously / Changes in systemic blood pressure when injected intravenously: anesthetized dogs, 1 mg/kg intravenously
Protocol: as §1

[5] = Inhibition of spontaneous nystagmus produced by unilateral destruction of the labyrinth (anti-vertigo action); format: in vivo; conditions: cats; for inhibition at 6 mg/kg / inhibition at 12 mg/kg: Felis catus, iv, read-out: Effect of compounds on the nystagmus expressed as inhibitory percentage
Protocol: (1) It is well known that vertigo resulting from the disturbance of the peripheral labyrinth is accompanied by nystagmus. So, we acutely produced the spontaneous nystagmus by unilateral destruction of the labyrinth in cats and used it as an experimental model of vertigo. a pair of Ag--AgCl cup electrodes was placed laterally to both orbits and an indifferent electrode on the forehead. The nystagmus was recorded through an amplifier. The inhibitory effect of the compounds on the nystagmus was expressed by [formula] where A is the frequency of the nystagmus in ten seconds before administration of the compounds and B is the frequency of the nystagmus at the maximum inhibitory point after administration. The duration of the effect was also measured. Compounds dissolved in saline were injected into the femoral vein. Betahistine and diphenidol were used as standard drugs.
A: Doses of compounds injected intraveneously.
B: Effect of compounds on the nystagmus expressed as inhibitory
C: Duration of the effect of compounds

[6] = Effect on the hexobarbital-induced sleeping time; conditions: male mice, 50 mg/kg subcutaneously, 15 min prior to sodium hexobarbital i.p.
Protocol: Groups consisted of 10 male-mice were administered the compounds or saline subcutaneously 15 min. prior to an intraperitoneal injection of sodium hexobarbital. Sleeping time for each animal in a group was measured. The averaged value of sleeping time in each group was calculated. The action of the sleeping time was expressed by the percentage of the sleeping time in the compound-treated groups to that in the saline-treated group.
D: Sleeping time of the compound (50 mg/kg, subcutaneously)treated groups
expressd as percentage to that of the control group.

[7] = mice, intraperitoneal injection (Table 4)
[8] = 12 mg/kg injected intravenously
[9] = male mice, intraperitoneal injection (Table 3)

## CCCOc1cc(CN2CCc3ncccc3C2)ccc1OC [Compound 49]
[1]; [7]
  LD50: 174 mg/kg
[2]
  change in vivo at 1 mg: 93%
[3]
  Changes in heart rate when injected intravenously: +24 Δ beats/min
  Changes in systemic blood pressure when injected intravenously: -11.6 Δ mmHg
[4]
  change in vivo at 1 mg/kg: 21.2%

## O=[N+]([O-])c1ccccc1C=CCN1CCc2ncccc2C1 [Compound 67]
[2]
  change in vivo at 1 mg: 75%
[4]
  change in vivo at 1 mg/kg: 40%
  Changes in heart rate when injected intravenously: +16 Δ beats/min
  Changes in systemic blood pressure when injected intravenously: -31.7 Δ mmHg

## CCc1ccc(CN2CCc3ncccc3C2)cc1 [Compound 35]
[2]
  change in vivo at 1 mg: 56%
[4]
  change in vivo at 1 mg/kg: 27.3%
  Changes in heart rate when injected intravenously: +8 Δ beats/min
  Changes in systemic blood pressure when injected intravenously: -21.7 Δ mmHg

## CCCCOc1ccc(CN2CCc3ncccc3C2)cc1OCCCC [Compound 51]
[2]
  change in vivo at 1 mg: 77%
[3]
  Changes in heart rate when injected intravenously: 0 Δ beats/min
  Changes in systemic blood pressure when injected intravenously: 0 Δ mmHg
[4]
  change in vivo at 1 mg/kg: 16.7%

## C=CCN1CCc2ncccc2C1 [Compound 12, 5,6,7,8-tetrahydro-6-allyl-1,6-naphtyridine]
[5]; 6 mg/kg injected intravenously
  inhibition at 6 mg/kg: 90%
  Duration of the effect of compounds (nystagmus): 40 min
[5]; [8]
  inhibition at 12 mg/kg: 98%
  Duration of the effect of compounds (nystagmus): 50 min
[1]; [9]
  LD50: 208 mg/kg
[6]
  Sleeping time of the compound treated groups expressed as percentage to that of the control group: 132.5%

## CCCCCN1CCc2ncccc2C1 [Compound 6, 5,6,7,8-tetrahydro-6-n-amyl-1,6-naphthyridine]
[5]; [8]
  inhibition at 12 mg/kg: 86%
  Duration of the effect of compounds (nystagmus): 10 min
[1]; [9]
  LD50: 165 mg/kg

## Clc1ccc(C=CCN2CCc3ncccc3C2)cc1Cl [Compound 71]
[1]; [7]
  LD50: 199 mg/kg
[2]
  change in vivo at 1 mg: 116%
[4]
  change in vivo at 1 mg/kg: 44.4%
  Changes in heart rate when injected intravenously: +40 Δ beats/min
  Changes in systemic blood pressure when injected intravenously: -38.3 Δ mmHg

## c1ccc(OCCCN2CCc3ncccc3C2)cc1 [Compound 27]
[5]; [8]
  inhibition at 12 mg/kg: 90%
  Duration of the effect of compounds (nystagmus): 30 min
[1]; [9]
  LD50: 208 mg/kg

## c1cnc2c(c1)CN(CC1CCC1)CC2 [Compound 23]
[5]; [8]
  inhibition at 12 mg/kg: 83%
  Duration of the effect of compounds (nystagmus): 8 min
[1]; [9]
  LD50: 214 mg/kg

## COc1ccc(CN2CCc3ncccc3C2)cc1OC [Compound 46, 5,6,7,8-tetrahydro-6-(3,4-dimethoxybenzyl)-1,6-naphthyridine]
[1]; [7]
  LD50: 262 mg/kg
[2]
  change in vivo at 1 mg: 99%
[4]
  change in vivo at 1 mg/kg: 50%
  Changes in heart rate when injected intravenously: +32 Δ beats/min
  Changes in systemic blood pressure when injected intravenously: -27.2 Δ mmHg

## CCCCCC=CCN1CCc2ncccc2C1 [Compound 19]
[5]; [8]
  inhibition at 12 mg/kg: 65%
  Duration of the effect of compounds (nystagmus): 25 min
[1]; [9]
  LD50: 304 mg/kg

## Clc1ccc(C=CCN2CCc3ncccc3C2)c(Cl)c1 [Compound 70]
[1]; [7]
  LD50: 220 mg/kg
[2]
  change in vivo at 1 mg: 158%
[4]
  change in vivo at 1 mg/kg: 60%
  Changes in heart rate when injected intravenously: +16 Δ beats/min
  Changes in systemic blood pressure when injected intravenously: -11.7 Δ mmHg

## C=CCCN1CCc2ncccc2C1 [Compound 14, 5,6,7,8-tetrahydro-6-(3-butenyl)-1,6-naphthyridine]
[5]; [8]
  inhibition at 12 mg/kg: 77%
  Duration of the effect of compounds (nystagmus): 28 min
[1]; [9]
  LD50: 239 mg/kg

## Cc1ccc(C)c(C=CCN2CCc3ncccc3C2)c1 [Compound 72]
[1]; [7]
  LD50: 242 mg/kg
[2]
  change in vivo at 1 mg: 92%
[4]
  change in vivo at 1 mg/kg: 40%
  Changes in heart rate when injected intravenously: +48 Δ beats/min
  Changes in systemic blood pressure when injected intravenously: -38.3 Δ mmHg

## CCCCCCCN1CCc2ncccc2C1 [Compound 9]
[5]; [8]
  inhibition at 12 mg/kg: 79%
  Duration of the effect of compounds (nystagmus): 10 min
[1]; [9]
  LD50: 208 mg/kg
[2]
  change in vivo at 1 mg: 78%
[4]
  change in vivo at 1 mg/kg: 15.5%
  Changes in heart rate when injected intravenously: +8 Δ beats/min
  Changes in systemic blood pressure when injected intravenously: -20.0 Δ mmHg

## CC(C)c1ccc(CN2CCc3ncccc3C2)cc1 [Compound 37]
[1]; [7]
  LD50: 300 mg/kg
[2]
  change in vivo at 1 mg: 110%
[4]
  change in vivo at 1 mg/kg: 33.3%
  Changes in systemic blood pressure when injected intravenously: -13.3 Δ mmHg

## CC(C)c1cccc(CN2CCc3ncccc3C2)c1 [Compound 36]
[1]; [7]
  LD50: 368 mg/kg
[2]
  change in vivo at 1 mg: 100%
[4]
  change in vivo at 1 mg/kg: 22%
  Changes in heart rate when injected intravenously: +8 Δ beats/min
  Changes in systemic blood pressure when injected intravenously: -20.0 Δ mmHg

## CCCCCCN1CCc2ncccc2C1 [Compound 8]
[5]; [8]
  inhibition at 12 mg/kg: 88%
  Duration of the effect of compounds (nystagmus): 10 min
[1]; [9]
  LD50: 194 mg/kg
[2]
  change in vivo at 1 mg: 67%
[4]
  change in vivo at 1 mg/kg: 20.1%
  Changes in heart rate when injected intravenously: +8 Δ beats/min
  Changes in systemic blood pressure when injected intravenously: -18.5 Δ mmHg

## CCCCCCCCCCN1CCc2ncccc2C1 [Compound 11]
[1]; [7]
  LD50: 156 mg/kg
[2]
  change in vivo at 1 mg: 99%
[4]
  change in vivo at 1 mg/kg: 25%
  Changes in heart rate when injected intravenously: +8 Δ beats/min
  Changes in systemic blood pressure when injected intravenously: -5.0 Δ mmHg

## Clc1ccc(CN2CCc3ncccc3C2)cc1Cl [Compound 44]
[1]; [7]
  LD50: 270 mg/kg
[2]
  change in vivo at 1 mg: 107%
[4]
  change in vivo at 1 mg/kg: 30.8%
  Changes in heart rate when injected intravenously: +32 Δ beats/min
  Changes in systemic blood pressure when injected intravenously: -16.7 Δ mmHg

## c1ccc(CCN2CCc3ncccc3C2)cc1 [Compound 55]
[5]; [8]
  inhibition at 12 mg/kg: 92%
  Duration of the effect of compounds (nystagmus): 5 min
[1]; [9]
  LD50: 219 mg/kg

## Clc1ccccc1C=CCN1CCc2ncccc2C1 [Compound 61]
[2]
  change in vivo at 1 mg: 84%
[4]
  change in vivo at 1 mg/kg: 29.2%
  Changes in heart rate when injected intravenously: +24 Δ beats/min
  Changes in systemic blood pressure when injected intravenously: -20.0 Δ mmHg

## CCCOc1ccc(CN2CCc3ncccc3C2)cc1OCCC [Compound 50]
[1]; [7]
  LD50: 200 mg/kg
[2]
  change in vivo at 1 mg: 79%
[3]
  Changes in heart rate when injected intravenously: +16 Δ beats/min
  Changes in systemic blood pressure when injected intravenously: -10.0 Δ mmHg
[4]
  change in vivo at 1 mg/kg: 30.6%

## CC(C)CCN1CCc2ncccc2C1 [Compound 7]
[5]; [8]
  inhibition at 12 mg/kg: 85%
  Duration of the effect of compounds (nystagmus): 6 min
[1]; [9]
  LD50: 219 mg/kg

## c1ccc(CCCN2CCc3ncccc3C2)cc1 [Compound 57]
[5]; [8]
  inhibition at 12 mg/kg: 97%
  Duration of the effect of compounds (nystagmus): 10 min
[1]; [9]
  LD50: 159 mg/kg

## CC(C)=CCC/C(C)=C/CN1CCc2ncccc2C1 [Compound 20]
[1]; [7]
  LD50: 292 mg/kg
[2]
  change in vivo at 1 mg: 69%
[4]
  change in vivo at 1 mg/kg: 20%
  Changes in heart rate when injected intravenously: +12 Δ beats/min
  Changes in systemic blood pressure when injected intravenously: -11.7 Δ mmHg

## CC(C)(C)c1ccc(CN2CCc3ncccc3C2)cc1 [Compound 38]
[2]
  change in vivo at 1 mg: 78%
[4]
  change in vivo at 1 mg/kg: 28.6%
  Changes in systemic blood pressure when injected intravenously: -11.7 Δ mmHg

## Cc1ccc(CN2CCc3ncccc3C2)cc1 [Compound 34]
[1]; [7]
  LD50: 518 mg/kg
[2]
  change in vivo at 1 mg: 93%
[4]
  change in vivo at 1 mg/kg: 18%
  Changes in heart rate when injected intravenously: +8 Δ beats/min
  Changes in systemic blood pressure when injected intravenously: -10.0 Δ mmHg

## CNCCc1ccccn1 [betahistine, reference compound]
[5]; 6 mg/kg injected intravenously
  inhibition at 6 mg/kg: 55%
  Duration of the effect of compounds (nystagmus): 5 min
[5]; [8]
  inhibition at 12 mg/kg: 80%
  Duration of the effect of compounds (nystagmus): 8 min
[1]; [9]
  LD50: 864 mg/kg
[2]
  change in vivo at 1 mg: 90%
[3]
  Changes in heart rate when injected intravenously: +52 Δ beats/min
  Changes in systemic blood pressure when injected intravenously: -100.0 Δ mmHg
[4]
  change in vivo at 1 mg/kg: 14.3%

## Clc1ccc(CN2CCc3ncccc3C2)cc1 [Compound 33]
[2]
  change in vivo at 1 mg: 75%
[4]
  change in vivo at 1 mg/kg: 30%
  Changes in heart rate when injected intravenously: +8 Δ beats/min
  Changes in systemic blood pressure when injected intravenously: -23.5 Δ mmHg

## c1ccc(CN2CCc3ncccc3C2)cc1 [Compound 31]
[5]; [8]
  inhibition at 12 mg/kg: 57%
  Duration of the effect of compounds (nystagmus): 9 min
[1]; [9]
  LD50: 262 mg/kg
[2]
  change in vivo at 1 mg: 90%
[4]
  change in vivo at 1 mg/kg: 36%
  Changes in heart rate when injected intravenously: +16 Δ beats/min
  Changes in systemic blood pressure when injected intravenously: -12.0 Δ mmHg

## C(=C\c1ccccc1)/CN1CCc2ncccc2C1 [Compound 58, 5,6,7,8-tetrahydro-6-cinnamyl-1,6-naphthyridine]
[5]; [8]
  inhibition at 12 mg/kg: 53%
  Duration of the effect of compounds (nystagmus): 35 min
[1]; [9]
  LD50: 263 mg/kg
[2]
  change in vivo at 1 mg: 81%
[4]
  change in vivo at 1 mg/kg: 22.2%
  Changes in heart rate when injected intravenously: +40 Δ beats/min
  Changes in systemic blood pressure when injected intravenously: -13.3 Δ mmHg

Source: US4308273A, “1,6-Naphthyridine derivatives, and antidinic and cerebral circulation improver containing such derivatives” (Nippon Kayaku Kabushiki Kaisha, priority 1978, dated 1981)
